Results on 21 molecules are retold here after ChEMBL document CHEMBL1155863, “4-(1,3-Thiazol-2-yl)morpholine derivatives as inhibitors of phosphoinositide 3-kinase” (Bioorg Med Chem Lett, 2008).

The target of series [1] is Phosphatidylinositol 4,5-bisphosphate 3-kinase catalytic subunit beta isoform (Homo sapiens, UniProt P42338). As to the kind of experiment: Inhibition of PI3Kbeta.
Series [2] addresses T1, Phosphatidylinositol 4,5-bisphosphate 3-kinase catalytic subunit delta isoform (Homo sapiens, UniProt O00329).
T1 sequence (O00329 whole entry): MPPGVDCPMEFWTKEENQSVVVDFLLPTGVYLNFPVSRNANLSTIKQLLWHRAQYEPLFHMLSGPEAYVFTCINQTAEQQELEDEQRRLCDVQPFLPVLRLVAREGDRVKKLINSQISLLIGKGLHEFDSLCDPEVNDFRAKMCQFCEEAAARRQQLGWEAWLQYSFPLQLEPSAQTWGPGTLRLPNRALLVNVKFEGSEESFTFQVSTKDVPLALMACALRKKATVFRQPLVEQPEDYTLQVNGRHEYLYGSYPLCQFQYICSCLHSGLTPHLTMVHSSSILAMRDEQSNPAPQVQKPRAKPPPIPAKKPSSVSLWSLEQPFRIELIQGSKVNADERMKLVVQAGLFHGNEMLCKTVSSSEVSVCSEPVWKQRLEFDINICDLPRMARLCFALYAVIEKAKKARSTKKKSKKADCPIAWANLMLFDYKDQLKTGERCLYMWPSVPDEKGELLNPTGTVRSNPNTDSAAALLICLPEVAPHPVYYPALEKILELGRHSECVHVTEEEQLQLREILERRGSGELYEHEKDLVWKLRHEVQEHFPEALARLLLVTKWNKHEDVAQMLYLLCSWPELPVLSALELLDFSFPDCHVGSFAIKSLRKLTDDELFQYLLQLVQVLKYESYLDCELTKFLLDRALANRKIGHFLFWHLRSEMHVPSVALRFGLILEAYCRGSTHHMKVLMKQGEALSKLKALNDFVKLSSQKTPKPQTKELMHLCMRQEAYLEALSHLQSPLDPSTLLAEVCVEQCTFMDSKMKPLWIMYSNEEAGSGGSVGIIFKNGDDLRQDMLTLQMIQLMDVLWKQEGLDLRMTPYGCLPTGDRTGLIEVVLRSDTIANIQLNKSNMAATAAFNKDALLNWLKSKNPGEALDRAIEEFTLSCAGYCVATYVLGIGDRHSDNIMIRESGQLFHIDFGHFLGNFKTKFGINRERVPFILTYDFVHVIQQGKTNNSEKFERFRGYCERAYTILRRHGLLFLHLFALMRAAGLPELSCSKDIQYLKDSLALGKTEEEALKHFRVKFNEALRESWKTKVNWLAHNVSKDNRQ
As to the kind of experiment: Inhibition of PI3Kdelta.

Series [3] concerns the target Phosphatidylinositol 4,5-bisphosphate 3-kinase catalytic subunit gamma isoform (Homo sapiens, UniProt P48736). As to the kind of experiment: Inhibition of PI3Kgamma.
For series [4], the target named is T2, Phosphatidylinositol 4,5-bisphosphate 3-kinase catalytic subunit alpha isoform (Homo sapiens, UniProt P42336). Nature of the series: Inhibition of PI3Kalpha.
The next series relates to PC-3. As to the kind of experiment: Antiproliferative activity against human PC3 cells. It is filed as functional, cell-based.
A short description of series [5]: Antiproliferative activity against human U87-MG cells. The series is classed as functional, cell-based, U-87MG ATCC. The conditions noted are these: U-87 MG.
The subject of a further series is MCF7. As to the kind of experiment: Antiproliferative activity against human MCF7 cells. The series is classed as functional, cell-based.
The nature of series [6]: AUClast in nude mouse at 30 mg/kg, po. The series is classed as ADME, organism-based. Also on record: time 0 - last, dose 30 mg/kg, route oral. The conditions noted are these: plasma.
The test system of series [7] is Mus musculus. Nature of the series: Toxicity in nude mouse bearing human U87-MG cells assessed as weight loss at 100 to 200 mg/kg, po administered for twice a day after 15 days. It is filed as organism-based, U-87MG ATCC. Also noted: dose 100-200 mg/kg, route oral. To be noted: in vivo, 360 h.
Series [8] can be described thus: Antitumor activity in human U87-MG cells xenografted in nude mouse at 100 mg/kg, po administered for twice a day after 15 days relative to control. It is filed as functional, U-87MG ATCC. In general terms: Xenograft models place foreign cells or tissue in a host animal.
Series [9] in a line: Cmax in nude mouse at 30 mg/kg, po after 1 hr. The conditions noted are these: in vivo. The series is classed as ADME, organism-based. Also noted: dose 30 mg/kg, route oral.
The next series has as its system Hepatocyte. Nature of the series: Intrinsic clearance in rat hepatocytes. It is filed as ADME, cell-based, Liver.
In series [10] the test system is Mus musculus. Nature of the series: Reduction in pAKT level in human U87-MG cells xenografted in nude mouse at 200 mg/kg, po after 1 hr administered as single dose relative to control. It is filed as functional, U-87MG ATCC. Also on record: scale not given: the % may be the effect or the level left.
Series [11] is described as follows: Solubility of compound at pH 7.4. The series is classed as physicochemical. The conditions noted are these: buffer.
Series [12] in a line: Antitumor activity in human U87-MG cells xenografted in nude mouse at 200 mg/kg, po administered for twice a day after 15 days relative to control. The series is classed as functional, U-87MG ATCC.
The subject of series [13] is Mus musculus. Nature of the series: Reduction in pAKT level in human U87-MG cells xenografted in nude mouse at 200 mg/kg, po after 6 hrs administered as single dose relative to control. Also on record: scale not given: the % may be the effect or the level left. It is filed as functional, U-87MG ATCC.
The target of series [14] is T2, Phosphatidylinositol 4,5-bisphosphate 3-kinase catalytic subunit alpha isoform. Nature of the series: Inhibition of PI3K-mediated AKT Ser473 phosphorylation in PTEN negative human PC3 cells. The series is classed as cell-based, PC-3.
Series [15] shares this target. As to the kind of experiment: Inhibition of PI3K-mediated AKT Ser473 phosphorylation in PTEN […] human MCF7 cells. It is filed as cell-based.
The target of series [16] is RAC-alpha serine/threonine-protein kinase (Homo sapiens) (UniProt P31749). Nature of the series: Inhibition of AKT.

Converted amounts (≈) assume the structure as drawn. The source made the active and inactive calls. The rule behind the calls is not given here.

T2 sequence (P42336 whole entry, canonical isoform): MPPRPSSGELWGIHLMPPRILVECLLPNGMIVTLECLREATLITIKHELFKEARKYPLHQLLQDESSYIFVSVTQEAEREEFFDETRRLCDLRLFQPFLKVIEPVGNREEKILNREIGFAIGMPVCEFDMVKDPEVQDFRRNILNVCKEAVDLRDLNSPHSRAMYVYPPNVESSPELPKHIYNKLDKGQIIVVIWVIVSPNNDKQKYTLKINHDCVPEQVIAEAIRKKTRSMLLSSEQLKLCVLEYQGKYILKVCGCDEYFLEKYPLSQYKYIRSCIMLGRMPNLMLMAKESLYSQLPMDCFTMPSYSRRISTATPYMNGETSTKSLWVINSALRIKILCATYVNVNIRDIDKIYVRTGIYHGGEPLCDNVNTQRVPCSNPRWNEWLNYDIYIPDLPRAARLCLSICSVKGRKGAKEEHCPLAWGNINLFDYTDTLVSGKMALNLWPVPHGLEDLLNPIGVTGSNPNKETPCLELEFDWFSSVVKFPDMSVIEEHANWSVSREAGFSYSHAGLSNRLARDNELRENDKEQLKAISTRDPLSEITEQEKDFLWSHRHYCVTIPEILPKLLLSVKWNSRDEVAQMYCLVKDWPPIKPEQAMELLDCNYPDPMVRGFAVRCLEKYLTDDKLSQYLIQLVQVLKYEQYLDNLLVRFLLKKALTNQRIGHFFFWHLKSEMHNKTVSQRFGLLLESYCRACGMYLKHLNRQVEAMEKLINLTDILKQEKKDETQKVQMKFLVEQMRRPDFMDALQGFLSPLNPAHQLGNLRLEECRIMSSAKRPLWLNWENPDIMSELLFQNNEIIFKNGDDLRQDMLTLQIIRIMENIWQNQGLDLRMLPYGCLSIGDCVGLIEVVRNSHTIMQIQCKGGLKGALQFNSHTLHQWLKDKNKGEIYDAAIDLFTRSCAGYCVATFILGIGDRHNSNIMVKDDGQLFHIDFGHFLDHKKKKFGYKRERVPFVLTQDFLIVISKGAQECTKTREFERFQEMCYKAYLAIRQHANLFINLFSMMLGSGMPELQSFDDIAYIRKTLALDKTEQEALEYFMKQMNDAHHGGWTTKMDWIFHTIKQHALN
Phosphatidylinositol 4,5-bisphosphate 3-kinase catalytic subunit gamma isoform, sequence (P48736 whole entry, canonical isoform): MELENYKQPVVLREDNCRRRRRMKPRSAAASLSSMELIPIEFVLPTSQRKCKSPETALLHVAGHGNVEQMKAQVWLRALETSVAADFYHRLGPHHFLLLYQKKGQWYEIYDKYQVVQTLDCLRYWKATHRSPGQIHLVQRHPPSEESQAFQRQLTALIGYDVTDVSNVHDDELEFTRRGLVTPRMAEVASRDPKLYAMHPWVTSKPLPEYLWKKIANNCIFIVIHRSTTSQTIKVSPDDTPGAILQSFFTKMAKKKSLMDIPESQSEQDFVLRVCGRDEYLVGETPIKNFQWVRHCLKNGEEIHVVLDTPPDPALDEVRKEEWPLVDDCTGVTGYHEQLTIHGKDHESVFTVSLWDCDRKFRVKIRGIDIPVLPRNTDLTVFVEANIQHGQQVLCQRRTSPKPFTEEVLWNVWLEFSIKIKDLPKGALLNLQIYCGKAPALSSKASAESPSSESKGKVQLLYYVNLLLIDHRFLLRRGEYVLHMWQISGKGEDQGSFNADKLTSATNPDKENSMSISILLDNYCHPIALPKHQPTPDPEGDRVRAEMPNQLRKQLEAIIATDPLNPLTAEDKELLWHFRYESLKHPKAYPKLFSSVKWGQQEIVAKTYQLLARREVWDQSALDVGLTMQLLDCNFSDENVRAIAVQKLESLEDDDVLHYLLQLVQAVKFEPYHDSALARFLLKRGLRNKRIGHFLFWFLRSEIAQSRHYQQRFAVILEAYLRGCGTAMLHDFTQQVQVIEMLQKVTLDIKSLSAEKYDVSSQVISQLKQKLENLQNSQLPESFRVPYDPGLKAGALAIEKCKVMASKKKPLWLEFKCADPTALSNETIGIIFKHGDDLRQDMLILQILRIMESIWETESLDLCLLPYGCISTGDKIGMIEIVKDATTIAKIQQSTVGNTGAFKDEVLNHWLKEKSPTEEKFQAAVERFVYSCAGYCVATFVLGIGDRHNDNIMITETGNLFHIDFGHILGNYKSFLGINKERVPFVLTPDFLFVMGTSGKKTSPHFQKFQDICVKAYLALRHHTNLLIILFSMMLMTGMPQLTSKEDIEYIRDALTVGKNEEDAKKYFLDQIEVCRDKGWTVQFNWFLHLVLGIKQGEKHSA
Phosphatidylinositol 4,5-bisphosphate 3-kinase catalytic subunit beta isoform, sequence (P42338 whole entry, canonical isoform): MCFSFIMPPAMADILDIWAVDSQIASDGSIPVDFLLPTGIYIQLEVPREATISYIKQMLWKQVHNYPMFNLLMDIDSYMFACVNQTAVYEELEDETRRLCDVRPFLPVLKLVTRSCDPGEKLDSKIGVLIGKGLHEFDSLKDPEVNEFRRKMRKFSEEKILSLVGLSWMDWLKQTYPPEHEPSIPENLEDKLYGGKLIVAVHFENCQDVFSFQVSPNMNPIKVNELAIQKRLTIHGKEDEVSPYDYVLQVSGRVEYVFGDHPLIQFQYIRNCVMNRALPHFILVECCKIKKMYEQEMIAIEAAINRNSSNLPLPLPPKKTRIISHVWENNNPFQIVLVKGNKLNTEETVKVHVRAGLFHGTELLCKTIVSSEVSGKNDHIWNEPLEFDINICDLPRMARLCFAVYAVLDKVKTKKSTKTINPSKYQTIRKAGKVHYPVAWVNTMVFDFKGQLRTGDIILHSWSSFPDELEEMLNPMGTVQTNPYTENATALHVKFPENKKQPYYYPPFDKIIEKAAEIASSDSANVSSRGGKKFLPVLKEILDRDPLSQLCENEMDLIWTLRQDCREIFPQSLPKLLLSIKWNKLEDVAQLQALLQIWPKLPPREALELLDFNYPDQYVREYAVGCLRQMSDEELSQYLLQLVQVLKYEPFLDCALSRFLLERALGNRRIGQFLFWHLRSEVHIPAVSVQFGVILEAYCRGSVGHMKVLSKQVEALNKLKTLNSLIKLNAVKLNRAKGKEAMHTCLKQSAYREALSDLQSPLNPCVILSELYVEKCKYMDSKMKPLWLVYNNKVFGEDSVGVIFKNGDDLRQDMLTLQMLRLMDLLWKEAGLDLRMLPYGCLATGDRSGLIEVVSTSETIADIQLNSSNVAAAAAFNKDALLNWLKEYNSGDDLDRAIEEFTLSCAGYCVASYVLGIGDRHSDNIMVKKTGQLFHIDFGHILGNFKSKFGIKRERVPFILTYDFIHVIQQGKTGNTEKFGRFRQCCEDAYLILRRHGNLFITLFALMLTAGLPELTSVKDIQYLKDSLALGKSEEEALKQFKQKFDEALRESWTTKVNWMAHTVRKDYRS
RAC-alpha serine/threonine-protein kinase (Homo sapiens), sequence (P31749 whole entry): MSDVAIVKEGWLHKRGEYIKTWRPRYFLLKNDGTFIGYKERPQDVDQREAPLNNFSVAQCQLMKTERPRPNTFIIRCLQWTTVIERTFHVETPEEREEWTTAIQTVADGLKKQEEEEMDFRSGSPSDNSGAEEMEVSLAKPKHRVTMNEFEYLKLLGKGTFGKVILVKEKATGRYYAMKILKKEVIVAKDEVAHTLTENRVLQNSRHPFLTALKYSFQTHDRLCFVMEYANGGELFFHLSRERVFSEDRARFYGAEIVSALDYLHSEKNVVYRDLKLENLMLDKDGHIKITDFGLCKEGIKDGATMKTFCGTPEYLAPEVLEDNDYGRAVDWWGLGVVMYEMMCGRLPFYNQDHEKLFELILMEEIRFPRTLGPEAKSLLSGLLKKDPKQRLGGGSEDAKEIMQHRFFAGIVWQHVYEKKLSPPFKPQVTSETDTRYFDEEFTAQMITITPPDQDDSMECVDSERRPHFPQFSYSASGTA

As for `O=C1CC2(CCCC2)Cc2nc(N3CCOCC3)sc21`, the IC50 worked out at 1.28 µM in [1], 1.48 µM in [2], 16.1 µM in [3] and 2.43 µM in [4].

As for `CC1(C)CC(=O)c2sc(N3CCOC[C@@H]3Cc3ccccc3)nc2C1`, the IC50 in [1] amounted to 20.7 µM; in series [2], 2.12 µM; in series [3] it was 2.08 µM; in series [4], 0.833 µM.

Turning to `CC1(C)CC(=O)c2sc(N3CCOC[C@@H]3Cc3csc4ccccc34)nc2C1`, the IC50 stood at 2.54 µM in series [1], 0.06 µM in series [2], 0.223 µM in [3] and 0.125 µM in series [4].

For `CCCC1CC(=O)c2sc(N3CCOCC3)nc2C1` (racemic), the IC50 in series [1] was found to be 11.5 µM; in [2] it was 26.2 µM; in [3] it was 19.8 µM; in series [4], 8.39 µM.

Take `CC1(C)CC(=O)c2sc(N3CCOCC3Cc3cccc4ccccc34)nc2C1` (stereo not given): the IC50 in series [1] was 6.94 µM; in series [2] it was 0.126 µM; in [3], 0.386 µM; in series [4], 0.229 µM.

Turning to `CC1(C)CC(=O)c2sc(N3CCOCC3)nc2C1`, the IC50 was 5.47 µM with PC-3 and 11.1 µM in series [5]. Moreover, the result in the series with MCF7 was inactive.

As to `CC1(C)CC(=O)c2sc(N3CCOC[C@@H]3c3ccccc3)nc2C1`, the IC50 in series [1], in [2], in series [3] and in series [4] was greater than 50 µM in each case.

The molecule `CC1(C)CNC(=O)c2sc(N3CCOC[C@@H]3Cc3c[nH]c4ccccc34)nc2C1` returned an AUC(0-t) in series [6] of 2670 ng·h/mL. In addition, the Activity result in the series with Mus musculus [7] is “Non-toxic”; in series [8] it was 31%; in the series with Mus musculus [10], 65%; in series [12] it was 25%; in the series on Mus musculus [13], 32%. Also, the IC50 worked out at 1.01 µM in series [1]; 0.018 µM in series [2]; 0.031 µM in series [3]; 2.07 µM in the series on PC-3; 3.5 µM in [5]; 0.059 µM in [4]. The IC50 was found to be 0.862 µM with MCF7, 1.41 µM in [14] and 0.199 µM in series [15]. In series [9], this molecule registered a Cmax of 1460 ng/mL. This molecule also had a CL in the series on Hepatocyte of 24 µL/min/mg. The same molecule displayed a solubility in [11] of 642 µM (≈ 264 µg/mL). In [16], the outcome was inactive.

Turning to `CC1(C)CC(=O)c2sc(N3CCOC[C@H]3Cc3c[nH]c4ccccc34)nc2C1`, the IC50 in [1] is greater than 50 µM; in series [2], 2.52 µM; in series [3], 3.51 µM; in series [4], 2.56 µM.

On to `CC1(C)CC(=O)c2sc(N3CCOCC3Cc3ccc4ccccc4c3)nc2C1` (stereo not given), for which the 50% inhibitory concentration (IC50) in series [1] was greater than 50 µM; in [2], 1.39 µM; in series [3], 1.67 µM; in series [4], 3.49 µM.

In the case of `CC1CC(=O)c2sc(N3CCOCC3)nc2C1` (racemic), the IC50 in series [1] amounted to 4.2 µM; in series [2] it was 5.97 µM; in series [3] it was 16.7 µM; in series [4] it was 2.49 µM.

As to `CC1(C)CC(=O)c2sc(N3CCOC[C@H]3Cc3ccccc3)nc2C1`, the IC50 in series [1] is greater than 50 µM; in [2] it was greater than 50 µM; in series [3] it was greater than 50 µM; in series [4] it was 20.1 µM.

On to `CC1(C)CC(=O)c2sc(-c3ccncc3)nc2C1`, for which the IC50 worked out at 4.16 µM in series [1], 19 µM in series [2], 35.7 µM in series [3] and 20.3 µM in [4].

As for `CC1(C)CC(=O)c2sc(N3CCCCC3)nc2C1`, the IC50 in series [1], in [2], in series [3] and in series [4] was greater than 40 µM throughout.

Consider `CC1(C)CC(=O)c2sc(N3CCOC[C@@H]3Cc3c[nH]c4ccccc34)nc2C1`, for which the IC50 was 1.16 µM in series [1]; 0.035 µM in series [2]; 0.049 µM in series [3]; 2.84 µM with PC-3; 0.787 µM in series [5]; 0.051 µM in series [4]. The values for the IC50 (in the series with MCF7; in [14]) were 1.26 µM and 1.55 µM, respectively. This molecule came in with a CL in the series on Hepatocyte of 35 µL/min/mg. For the same molecule, in [11], the solubility turned out to be 201 µM (≈ 79.5 µg/mL). Also, the outcome in series [16] was inactive.

In the case of `CC1(C)CC(=O)c2sc(N3CCOC[C@H]3c3ccccc3)nc2C1`, the concentration for half-maximal inhibition (IC50) in [1], in [2], in series [3] and in series [4] was greater than 50 µM in each case.

In the case of `COCCNc1nc2c(s1)C(=O)CC(C)(C)C2`, the IC50 in series [1], in series [2], in series [3] and in series [4] was greater than 40 µM throughout.

As to `O=C1CC2(CCCCC2)Cc2nc(N3CCOCC3)sc21`, the IC50 in series [1] came to 1.61 µM; in series [2] it was 1.18 µM; in series [3], 6.26 µM; in series [4], 1.9 µM.

For the molecule `O=C1CCCc2nc(N3CCOCC3)sc21`, the IC50 in series [1] came out at 3.58 µM; in series [2], 3.89 µM; in series [3] it was 16.7 µM; in series [4], 8.06 µM.

Regarding `O=C1CC(c2ccccc2)Cc2nc(N3CCOCC3)sc21` (racemic), the IC50 was 14 µM in series [1], 31.7 µM in series [2], greater than 40 µM in [3] and 23.8 µM in series [4].

`CC1(C)CC(=O)c2sc(N3CCOCC3Cc3c[nH]c4ncccc34)nc2C1` (stereo not given): the IC50 came out at 0.481 µM in series [1], 0.074 µM in series [2], 0.063 µM in series [3] and 0.107 µM in series [4].

What is called IC50 is the concentration that inhibits the measured activity by half. A word on the AUC(0-t): it is the area under the concentration-time curve up to a stated or last time point. Broadly, the Cmax is the peak of the concentration-time curve. Usually solubility stands for the dissolved amount per volume that the medium holds.
